Experimental findings from patent US20250319034A1, “MICROSPHERE PRODUCTION METHOD” (VITALTE LIFESCIENCES INC., priority 2024, published 2025) are described below.

The nature of this series: T release study in saline incubation media. Particulars: saline incubation media, 2, 4 and 6 hours. In kind it is physicochemical. How it is done: In order to compare the release rate results of hydrogel encapsulated T to pelleted T, larger gels had to be prepared as the T pellets which the hydrogels are intended to replace are 25 mg, where the E2 pellets are merely 6 mg. Thus, approximately 83 mg of hydrogel at 30% T loading and 1% HA were prepared. In order to achieve even or consistent crosslinking in these much larger hydrogel samples, Likarda's patented micromolds (shown in FIG. 21) were employed. After formation, the encapsulated T was removed from the molds and placed in tubes to be rotated for an hour. The encapsulated T hydrogels were then removed from the tubes and stored in Dulbecco's PBS buffer. The large hydrogel blocks encapsulating T were then tested and compared to 25 mg T pellets and micronized T powder.
The T powder was produced as a 2.5 mg/mL slurry in buffer to reach the near saturation point of T in the buffer. Samples of the T powder slurry were removed from only the top layer of the slurry fluid to avoid aspirating T particles in the slurry that may have precipitated at to the bottom. T pellets were collected directly from the vials in which they were stored. The 83 mg hydrogels containing 30% T were collected from Dulbecco's PBS buffer, rinsed, and dried. Each of the collected samples was then placed in a separate container of incubation media (saline in this instance) for the release studies. […]

Turning to `C[C@]12CC[C@H]3[C@@H](CCC4=CC(=O)CC[C@@]43C)[C@@H]1CC[C@@H]2O` [T powder, Testosterone], the “approximate saturation level of T in saline” value is listed as “about 1.5 mg/L”.
